Measurements: US20150175599A1, “FAAH Inhibitors” (Ironwood Pharmaceuticals, Inc., priority 2010, published 2015)

What was measured:
[1] = molecular target: T1, hERG channel (Homo sapiens, UniProt Q12809); assay: hERG channel inhibition, automated patch clamp (IonWorks HT, hERG-CHO); assay type: cell-based; details: CHO cells expressing hERG, 600 s incubation; for inhibition at 600 s, 1 µM: 1 μM compound, read-out: hERG Channel Inhibition % (at 1 μM), vehicle-subtracted values; for inhibition at 600 s, 10 µM: 10 μM compound, read-out: hERG Channel Inhibition % (at 10 μM), vehicle-subtracted values
T1 construct: expressed in transfected cells; host or cells: CHO (hERG-CHO), under Geneticin selection
Outline: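 hERG-CHO cells held at 30 °C for 48 h before IonWorks HT patch clamp: from −80 mV to +40 for 2 s, then −50 mV for 2 s tail, repeated three times, before and after 600 s compound exposure. Third-pulse post/pre tail amplitude ratio gave percent inhibition; cells with seal <50 MOhm or tail <250 pA excluded.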

[2] = molecular target: T2, FAAH (Homo sapiens, UniProt O00519); assay: FAAH inhibition, human brain membrane homogenate assay; assay type: biochemical; details: human brain homogenate; average activity; read-out: Human brain Extract FAAH IC50
T2 construct: Reactions were initiated by adding 12.5 μg of brain microsome; tissue ABS, Inc; host or cells: human brain cerebral cortex, membrane/microsome fraction pooled from 3 donors
T2 sequence (O00519 1-579): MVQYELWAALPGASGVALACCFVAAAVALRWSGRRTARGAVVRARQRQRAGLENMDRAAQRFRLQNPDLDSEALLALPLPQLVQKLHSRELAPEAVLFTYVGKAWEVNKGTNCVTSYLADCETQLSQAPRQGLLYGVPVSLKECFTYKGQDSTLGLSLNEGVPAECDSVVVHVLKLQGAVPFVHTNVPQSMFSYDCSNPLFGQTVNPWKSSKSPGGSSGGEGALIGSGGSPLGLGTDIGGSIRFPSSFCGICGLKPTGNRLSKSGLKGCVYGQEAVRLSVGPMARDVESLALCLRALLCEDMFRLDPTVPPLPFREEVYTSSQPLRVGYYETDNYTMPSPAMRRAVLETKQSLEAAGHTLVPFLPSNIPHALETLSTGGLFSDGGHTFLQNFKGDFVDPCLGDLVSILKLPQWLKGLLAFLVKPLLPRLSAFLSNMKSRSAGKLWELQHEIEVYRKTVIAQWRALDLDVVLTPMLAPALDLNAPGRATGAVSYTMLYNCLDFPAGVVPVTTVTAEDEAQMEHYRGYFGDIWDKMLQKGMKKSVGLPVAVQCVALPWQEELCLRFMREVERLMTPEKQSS

[3] = Pharmacokinetic study, plasma level 2 hours after oral dosing in rats; assay type: in vivo
Description: Pharmacokinetic studies were conducted to determine absorption and distribution profiles of the disclosed compounds which were orally administered to rats.
Compounds were formulated in a 1% DMA/99% Vitamin E TPGS vehicle. Prepared compounds were dosed via oral gavage (PO). Following the appropriate pretreatment time of 2 hours, rats were anesthetized with isoflurane gas. Blood was collected into tubes containing EDTA via retro-orbital eye bleed. Whole blood was spun in a micro-centrifuge at approximately 13,000 rpm for 5 minutes at room temperature. Separated plasma was subsequently aliquoted into eppendorf tubes. Samples were stored at −80° C. until prepped for analysis.
Plasma samples were thawed and the required amount of plasma for standards, blanks and dilutions were made. The dilutions were prepared before plating. Preparation of crash solution included cold acetonitrile+0.1% formic acid and 25 ng/mL of a FAAH inhibitor used as internal standard. solvent standards of the FAAH inhibitor being studied were preparation at 10, 30, 100, 300, 1000, 3000, 10000, 30000, 100000, and 300000 ng/mL in DMSO. Then a plasma standard curve was generated from the solvent standards (final concentrations of standards in plasma were: 0.1, 0.3, 1, 3, 10, 30, 100, 300, 1000, 3000 ng/mL). 50 μL of each plasma sample/dilution, standard, or blank was transferred into 96-well plates. To each well, 200 μL of cold crash solution was added. The plate was covered and gently vortexed. The plate was centrifuged at 3500 rpm, 4° C. for 10 min. 200 μL of each supernatant was transferred into new plates. The plates were dried under nitrogen in a TurboVap at 55° C. The sample in each well was re-suspended with 100 μL of 30% acetonitrile, covered and vortexed gently. The well solutions were analyzed by the LC/MS/MS conditions and specifications below.
HPLC column was a Clipeus C8, 2.1×30 mm, 5 μm, with Basic 8 guard column using 20 μL injections. Mobile phase used was mobile phase A: 0.1% Formic Acid in water and mobile phase B: 0.1% Formic Acid in 85:10:5 ACN:IPA:H2O. The flow rate for the run was 0.5 mL/min and the gradient for the 4 minute total run time was: 0.0 minutes

T1 sequence (Q12809 whole entry): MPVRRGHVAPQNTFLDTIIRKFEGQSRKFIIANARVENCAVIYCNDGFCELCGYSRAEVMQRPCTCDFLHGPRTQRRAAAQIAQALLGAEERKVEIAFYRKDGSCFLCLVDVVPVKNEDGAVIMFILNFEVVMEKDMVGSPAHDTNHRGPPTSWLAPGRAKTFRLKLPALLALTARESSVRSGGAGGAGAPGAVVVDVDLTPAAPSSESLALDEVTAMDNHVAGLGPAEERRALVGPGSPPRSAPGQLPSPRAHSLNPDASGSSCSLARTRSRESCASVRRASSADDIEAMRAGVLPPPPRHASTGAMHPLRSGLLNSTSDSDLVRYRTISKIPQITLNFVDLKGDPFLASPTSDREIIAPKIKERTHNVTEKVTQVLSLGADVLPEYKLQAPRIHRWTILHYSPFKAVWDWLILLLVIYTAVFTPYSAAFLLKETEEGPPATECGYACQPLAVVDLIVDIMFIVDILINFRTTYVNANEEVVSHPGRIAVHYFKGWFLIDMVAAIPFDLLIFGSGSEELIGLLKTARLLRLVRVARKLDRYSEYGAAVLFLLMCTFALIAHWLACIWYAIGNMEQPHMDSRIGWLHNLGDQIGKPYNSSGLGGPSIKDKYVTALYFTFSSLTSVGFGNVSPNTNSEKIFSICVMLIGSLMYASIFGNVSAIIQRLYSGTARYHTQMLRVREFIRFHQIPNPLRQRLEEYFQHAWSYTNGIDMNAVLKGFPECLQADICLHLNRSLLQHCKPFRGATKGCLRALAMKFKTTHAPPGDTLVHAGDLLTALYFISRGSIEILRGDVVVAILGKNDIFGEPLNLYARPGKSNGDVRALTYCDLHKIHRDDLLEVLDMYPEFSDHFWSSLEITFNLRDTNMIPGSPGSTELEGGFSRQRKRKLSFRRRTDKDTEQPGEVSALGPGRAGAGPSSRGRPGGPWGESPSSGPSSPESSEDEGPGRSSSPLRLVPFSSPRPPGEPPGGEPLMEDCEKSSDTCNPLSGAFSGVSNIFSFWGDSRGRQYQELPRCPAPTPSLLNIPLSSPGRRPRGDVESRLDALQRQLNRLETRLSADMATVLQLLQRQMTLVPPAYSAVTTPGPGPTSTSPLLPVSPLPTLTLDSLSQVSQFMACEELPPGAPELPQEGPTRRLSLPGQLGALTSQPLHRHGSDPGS

SMILES | inhibition at 600 s, 1 µM [1] [%] | inhibition at 600 s, 10 µM [1] [%] | IC50 [2] [nM] | 2 hr plasma level-ng/mL (rat, 10 mg/kg PO, 2 hr) [3]
COc1cnc2c(c1)c(C(=O)C(=O)Nc1ccnc(OC)c1)c(C)n2Cc1ncc(Cl)cc1F [Compound 34, 2-(1-((5-chloro-3-fluoropyridin-2-yl)methyl)-5-methoxy-2-methyl-1H-pyrrolo[2,3-b]pyridin-3-yl)-N-(2-methoxypyridin-4-yl)-2-oxoacetamide] | < 25 | < 25 | < 100 | D (D = greater than 1000 nM)
COc1cc(NC(=O)C(=O)c2c(C)n(Cc3ccc(Cl)cc3)c3ccc(OC)nc23)ccn1 [Compound 36, 2-(1-(4-chlorobenzyl)-5-methoxy-2-methyl-1H-pyrrolo[3,2-b]pyridin-3-yl)-N-(2-methoxypyridin-4-yl)-2-oxoacetamide] | < 25 | < 25 | < 100 | C (C = between 100 nM and 1000 nM)
COc1cc(NC(=O)C(=O)c2c(C)n(Cc3ccc(Cl)cc3)c3ccncc23)ccn1 [Compound 37, 2-(1-(4-chlorobenzyl)-2-methyl-1H-pyrrolo[3,2-c]pyridin-3-yl)-N-(2-methoxypyridin-4-yl)-2-oxoacetamide] | 25 to 50 | 50 to 75 | < 100 | C (C = between 100 nM and 1000 nM)
COc1cnc2c(c1)c(C(=O)C(=O)Nc1ccnc(OC)c1)c(C)n2Cc1ccc(Cl)cc1 [Compound 38, 2-(1-(4-chlorobenzyl)-5-methoxy-2-methyl-1H-pyrrolo[2,3-b]pyridin-3-yl)-N-(2-methoxypyridin-4-yl)-2-oxoacetamide] | < 25 | 25 to 50 | < 100 | C (C = between 100 nM and 1000 nM)
COc1cnc2c(c1)c(C(=O)C(=O)Nc1ccnc(OC)c1)c(C)n2Cc1ccc(Cl)cn1 [Compound 41, 2-(1-((5-chloropyridin-2-yl)methyl)-5-methoxy-2-methyl-1H-pyrrolo[2,3-b]pyridin-3-yl)-N-(2-methoxypyridin-4-yl)-2-oxoacetamide] | < 25 | 25 to 50 | < 100 | D (D = greater than 1000 nM)
COc1cnc2c(c1)c(C(=O)C(=O)Nc1ccnc(OC)c1)c(C)n2Cc1ccc(Cl)cc1Cl [Compound 42, 2-(1-(2,4-dichlorobenzyl)-5-methoxy-2-methyl-1H-pyrrolo[2,3-b]pyridin-3-yl)-N-(2-methoxypyridin-4-yl)-2-oxoacetamide] | < 25 | 50 to 75 | < 100 | C (C = between 100 nM and 1000 nM)
COc1ccc(Cn2c(C)c(C(=O)C(=O)Nc3ccnc(OC)c3)c3cc(OC)ccc32)nc1 [Compound 43, 2-(5-methoxy-1-((5-methoxypyridin-2-yl)methyl)-2-methyl-1H-indol-3-yl)-N-(2-methoxypyridin-4-yl)-2-oxoacetamide] | < 25 | < 25 | 100 to 1000 | D (D = greater than 1000 nM)
COc1cc(NC(=O)C(=O)c2c(C)n(Cc3ccc(Cl)cc3)c3cc(OC)c(OC)cc23)ccn1 [Compound 44, 2-(1-(4-chlorobenzyl)-5,6-dimethoxy-2-methyl-1H-indol-3-yl)-N-(2-methoxypyridin-4-yl)-2-oxoacetamide] | < 25 | < 25 | < 100 | C (C = between 100 nM and 1000 nM)
COc1cc(NC(=O)C(=O)c2c(C)n(Cc3ccc(Cl)cc3)c3cccc(OC)c23)ccn1 [Compound 45, 2-(1-(4-chlorobenzyl)-4-methoxy-2-methyl-1H-indol-3-yl)-N-(2-methoxypyridin-4-yl)-2-oxoacetamide] | < 25 | < 25 | < 100 | C (C = between 100 nM and 1000 nM)
COc1ccc2c(c1)c(C(=O)C(=O)Nc1ccnc(OC)n1)c(C)n2Cc1ccc(Cl)cc1 [Compound 46, 2-(1-(4-chlorobenzyl)-5-methoxy-2-methyl-1H-indol-3-yl)-N-(2-methoxypyrimidin-4-yl)-2-oxoacetamide] | < 25 | < 25 | < 100 | C (C = between 100 nM and 1000 nM)
COc1ccc2c(c1)c(C(=O)C(=O)Nc1cc(Cl)nc(OC)c1)c(C)n2Cc1ccc(Cl)cc1 [Compound 47, N-(2-chloro-6-methoxypyridin-4-yl)-2-(1-(4-chlorobenzyl)-5-methoxy-2-methyl-1H-indol-3-yl)-2-oxoacetamide] | < 25 | < 25 | < 100 | C (C = between 100 nM and 1000 nM)
COc1ccc2c(C(=O)C(=O)Nc3ccnc(OC)c3)c(C)n(Cc3ccc(Cl)cc3)c2c1 [Compound 48, 2-(1-(4-chlorobenzyl)-6-methoxy-2-methyl-1H-indol-3-yl)-N-(2-methoxypyridin-4-yl)-2-oxoacetamide] | < 25 | < 25 | < 100 | C (C = between 100 nM and 1000 nM)
COc1ccc2c(c1)c(C(=O)C(=O)Nc1cc(OC)ncc1F)c(C)n2Cc1ccc(Cl)cc1 [Compound 54, 2-(1-(4-chlorobenzyl)-5-methoxy-2-methyl-1H-indol-3-yl)-N-(5-fluoro-2-methoxypyridin-4-yl)-2-oxoacetamide] | < 25 | < 25 | < 100 | A (A = Less than 10 nM)
COc1cc(NC(=O)C(=O)c2c(C)n(Cc3ccc(Cl)cc3)c3cc(Cl)c(OC)cc23)ccn1 [Compound 55, 2-(6-chloro-1-(4-chlorobenzyl)-5-methoxy-2-methyl-1H-indol-3-yl)-N-(2-methoxypyridin-4-yl)-2-oxoacetamide] | < 25 | < 25 | < 100 | C (C = between 100 nM and 1000 nM)
COc1cc(NC(=O)C(=O)c2c(C)n(Cc3ccc(Cl)cc3)c3ccc(OC)c(F)c23)ccn1 [Compound 59, 2-(1-(4-chlorobenzyl)-4-fluoro-5-methoxy-2-methyl-1H-indol-3-yl)-N-(2-methoxypyridin-4-yl)-2-oxoacetamide] | < 25 | 25 to 50 | < 100 | C (C = between 100 nM and 1000 nM)
COc1cc(NC(=O)C(=O)c2c(C)n(Cc3ccc(Cl)cn3)c3cc(Cl)c(OC)cc23)ccn1 [Compound 60, 2-(6-chloro-1-((5-chloropyridin-2-yl)methyl)-5-methoxy-2-methyl-1H-indol-3-yl)-N-(2-methoxypyridin-4-yl)-2-oxoacetamide] | < 25 | 25 to 50 | < 100 | D (D = greater than 1000 nM)
